This note sets out measurements from PubChem BioAssay AID179 (DTP/NCI, 2004).

As a reminder, the EC50 is the concentration that produces a half-maximal response. The IC50 is the concentration at which inhibition is half-maximal. Lower therefore signals greater potency.

Activity calls are given as the source filed them.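 Rule for the calls: active = compounds giving half or more protection of infected cells from virus-caused growth loss, again on retest; inactive = the rest.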

The assay has as its system CEM cells HIV-1 protection, formazan growth assay. Kind of assay: NCI AIDS Antiviral Assay. To be noted: for IC50: measured here: growth of uninfected CEM cells. In outline:
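CEM (human) cells, HIV-1 infected vs uninfected, 5-point dosing, formazan growth read-out. Retest threshold 50% protection.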

For the compound `COC(=O)C(C(=O)C(=O)Nc1ccccc1OC)c1csc(-n2nc(-c3ccccc3)cc2-c2ccccc2)n1` (configuration not stated), the EC50 is greater than 115 µM and the IC50 is 97.7 µM.

Regarding `N=c1o[n-][n+](-c2ccccc2)c1-c1ccccc1`, the outcome was inactive.

As for `Cn1c(=O)nc2n(-c3cccc(Cl)c3)c3ccccc3nc-2c1=O`, the outcome was inactive.

As for `CC1=N/C(=C\c2ccc(N)cc2)C(=O)N1Nc1nnc(NN2C(=O)/C(=C/c3ccc(N)cc3)N=C2C)c2ccccc12`, the result was inactive.

For the compound `Cc1ccnc(NS(=O)(=O)c2ccc(NC(=O)c3ccccc3SC(=O)CCCC[n+]3ccccc3)cc2)n1`, the EC50 is 15.1 µM and the IC50 turned out to be 102 µM.

For the compound `O=C1OC2(c3ccccc3Oc3ccccc32)c2ccccc21`, the outcome was inactive.

On to `O=S1(=O)OCCOS(=O)(=O)C1Cc1nc2ccccc2[nH]1`, for which the EC50 was greater than 200 µM and the IC50 came to 32.4 µM.

`Cc1ccc(/C(O)=C/c2nc3ccccc3nc2NC23CC4CC(CC(C4)C2)C3)cc1`: the EC50 is greater than 200 µM and the IC50 was greater than 200 µM.

As for `COc1cc(Cc2nnc(SC)nc2C)cc(OC)c1OC`, the EC50 was 10 µM and the IC50 is 22.4 µM.

Consider `CCOC(=O)C(=C/C=C/N[C@@H](Cc1c[nH]c2ccccc12)C(N)=O)C(=O)OCC`, for which the EC50 is greater than 18.2 µM and the IC50 was greater than 18.2 µM.

For `Nc1ccccc1CN1C(=O)c2ccccc2C1=O`, the EC50 is greater than 200 µM and the IC50 was 3.55 µM.

For the compound `CCOC(=O)c1sc2c(c1OC(=O)c1cccs1)c(=O)n(-c1ccccc1)c(=S)n2-c1ccccc1`, the EC50 is greater than 200 µM and the IC50 is 6.92 µM.

With `O=C1C(=O)c2ccccc2C(O)=C1C(C1=C(O)c2ccccc2C(=O)C1=O)c1ccc(Cl)cc1Cl`, the EC50 was greater than 200 µM and the IC50 was determined as 16.2 µM.

For `O=[N+]([O-])c1ccccc1/C=C/c1ccccn1`, the EC50 is greater than 16.6 µM and the IC50 was greater than 16.6 µM.

Consider `CC(=O)[O-].CCCCCCC/C=N/[N-]C(=O)c1ccncc1.[Co+2].[OH3+].[OH3+].[OH3+].[OH3+]`, for which the EC50 was greater than 200 µM and the IC50 turned out to be 115 µM.

As to `C[PH+](C)C.C[PH+](C)C.[C-]#[O+].[C-]#[O+].[C-]#[O+].[Fe]`, the EC50 is greater than 200 µM and the IC50 is 49 µM.

Regarding `O=C1CCC2=C1C[C@@H]1CCCO[C@@H]1O2`, the outcome was inactive.

With `CN1C(=O)C(C)(C)C(=O)c2ccccc21`, the EC50 is greater than 200 µM and the IC50 is greater than 200 µM.

As for `O=c1[nH]c(-c2ccccc2)nc2ccc(Cl)cc12`, the result was inactive.

In the case of `COC(=O)CC(CC(=O)C(=O)OC)C(=O)OC` (configuration not stated), the EC50 was greater than 251 µM and the IC50 is greater than 251 µM.

With `O=C1OCCCCCCOC(=O)c2ccccc2SSc2ccccc21`, the EC50 is greater than 200 µM and the IC50 was greater than 200 µM.

`N#Cc1c(CC(=O)O)cc(=O)n2c1[nH]c1ccccc12`: the EC50 was greater than 933 µM and the IC50 amounted to 316 µM.

Take `c1ccc(-c2nc(-c3ccccc3)n3c(-c4ccccc4)nnc3n2)cc1`: the EC50 is greater than 14.8 µM and the IC50 was greater than 14.8 µM.

As to `CC1=C(C(=O)Nc2cc(=O)n(C)c(=O)n2C)C(c2ccc([N+](=O)[O-])cc2)C(C(=O)Nc2cc(=O)n(C)c(=O)n2C)=C(C)N1`, the EC50 was greater than 8.71 µM and the IC50 is greater than 8.71 µM.

As for `CN(C)c1cc2c3c(c1)CCCN3CCC2`, the EC50 is greater than 200 µM and the IC50 was determined as 11.5 µM.

As for `NC(Cc1ccccc1CP(=O)(O)O)C(=O)O` (configuration not stated), the EC50 was greater than 200 µM and the IC50 is greater than 200 µM.

For the compound `O=C(NC(=Nc1ccccc1)SCCSC(=Nc1ccccc1)NC(=O)c1cccs1)c1cccs1`, the EC50 was greater than 3.63 µM and the IC50 was greater than 3.63 µM.

For the compound `CCOC(=O)/C(C#N)=C/c1cc2c3c(c1)CCCN3CCC2`, the EC50 was greater than 100 µM and the IC50 was greater than 100 µM.

On to `COc1ccc(NC(=O)CC(=O)n2nc(-c3ccccc3)c(N=Nc3ccc(C)cc3)c2-c2ccccc2)cc1`, for which the EC50 was greater than 9.77 µM and the IC50 was greater than 9.77 µM.

For `O=C1c2c(O)cccc2C(C(=O)CCCC(=O)C2c3cccc(O)c3C(=O)c3c(O)cccc32)c2cccc(O)c21`, the EC50 was greater than 4.79 µM and the IC50 turned out to be 0.794 µM.

Turning to `COc1ccc(C2c3cc4c(cc3OC(N3CCOCC3)C2C)OCO4)cc1OC` (configuration not stated), the EC50 is greater than 200 µM and the IC50 worked out at 7.76 µM.

Turning to `CCOP(=O)(OCC)C(=O)C1CC1`, the EC50 was greater than 1200 µM and the IC50 amounted to 832 µM.

With `COC(=O)CCC(C)C1CCC2C3CC[C@@H]4CC(CO)CCC4(C)C3CCC12C` (some centres not stated), the EC50 is greater than 6.76 µM and the IC50 was greater than 6.76 µM.

As to `CC1=C2CC[C@@]3(C)C(=CCC3O)C2(C)CCC1=O` (some centres not stated), the result was inactive.

`COc1ccc2c(c1)[nH]c(=O)c1c3ccccc3[nH]c21`: the EC50 is greater than 200 µM and the IC50 worked out at 145 µM.

For the compound `CC1=Nc2ccc(Cl)cc2N=C(C)C1`, the EC50 is greater than 200 µM and the IC50 came to 155 µM.

With `CN(C)CCSC(=Nc1ccccc1)N1C=COC=C1`, the EC50 is greater than 871 µM and the IC50 came to 44.7 µM.

Regarding `Cc1nnc(NS(=O)(=O)c2ccc(N=Nc3cc(N=Nc4ccc(S(=O)(=O)Nc5nnc(C)s5)cc4)c4c(NC(=O)C(Cl)Cl)cccc4c3OC(=O)C(Cl)Cl)cc2)s1` (tested in a mixture with another compound), the outcome was inactive.

`COc1cc(C2c3cc4c(cc3OC(N3CCCC3)C2C)OCO4)cc(OC)c1O` (configuration not stated): the EC50 was greater than 200 µM and the IC50 worked out at 6.03 µM.

On to `COC(=O)/C(=C(/C)c1ccco1)P(=O)(OC)OC`, for which the EC50 was greater than 200 µM and the IC50 is greater than 200 µM.

With `COc1ccccc1N1C(Cl)C(=O)C1c1c[nH]c2ccccc12` (configuration not stated), the EC50 was greater than 151 µM and the IC50 turned out to be 129 µM.

For `COc1cc2c3c(c1OC)/C(=N/OS(=O)(=O)c1ccc(C)cc1)CC3N(S(=O)(=O)c1ccc(C)cc1)CC2` (configuration not stated), the outcome was inactive.

On to `O=C(O)C1Cc2ccccc2OC1=O` (configuration not stated), for which the EC50 was greater than 200 µM and the IC50 is greater than 200 µM.

With `O=C(O)c1ccc(C(=O)O)c(C(=O)c2cc(C(=O)O)ccc2C(=O)O)c1`, the EC50 was greater than 162 µM and the IC50 was found to be 61.7 µM.

With `Cc1ccc(S(=O)(=O)N(CCC(=O)O)c2ccccc2)cc1`, the EC50 was greater than 200 µM and the IC50 was greater than 200 µM.

Regarding `COc1ccc(/C=C2\Sc3scc(-c4ccc([N+](=O)[O-])cc4)[n+]3C2=O)cc1OC`, the EC50 is greater than 200 µM and the IC50 was found to be 15.8 µM.

As to `NC(=S)Nc1[nH]c(=S)nc2c1SC1=N/C(=C\c3ccco3)C(=O)N12`, the EC50 is greater than 200 µM and the IC50 worked out at 81.3 µM.

As to `O=C(/C=C1/Nc2ccc([N+](=O)[O-])cc2NC1O)c1cccc([N+](=O)[O-])c1` (configuration not stated), the EC50 was greater than 20.4 µM and the IC50 is greater than 20.4 µM.

Consider `CC(C)c1cc(C(=O)[O-])c(O)c(C(C)C)c1.CC(C)c1cc(C(=O)[O-])c(O)c(C(C)C)c1.CC(C)c1cc(C(=O)[O-])c(O)c(C(C)C)c1.CC(C)c1cc(C(=O)[O-])c(O)c(C(C)C)c1.CC(C)c1cc(C(=O)[O-])c(O)c(C(C)C)c1.CC(C)c1cc(C(=O)[O-])c(O)c(C(C)C)c1.[Cu+2].[Mn+2].[Mn+2]`, for which the EC50 was greater than 21.4 µM and the IC50 stood at 10.7 µM.

Consider `O=C1CN(C2CCCCC2)CC(=O)N2C(c3ccccc3)CCCN12` (configuration not stated), for which the EC50 was greater than 200 µM and the IC50 is greater than 200 µM.

As for `CCOP(C)(=O)C(Cc1c[nH]c2ccccc12)C(=O)O` (configuration not stated), the EC50 was greater than 200 µM and the IC50 is greater than 200 µM.

Regarding `O=C1OCc2c1cc1cc3c(cc1c2-c1ccc2c(c1)OCO2)OCO3`, the result was inactive.

For `CCOC(=O)C(Cc1ccccc1[N+](=O)[O-])C(=O)OCC`, the EC50 is greater than 200 µM and the IC50 is 102 µM.

Take `Cn1ccnc1Cn1cc(-c2cccc(-c3cn[nH]c3)c2)cn1`: the result was inactive.

`CC1C(c2ccccc2)OC(N2CCOCC2)C(C)(C)CN1C` (configuration not stated): the EC50 is greater than 200 µM and the IC50 is greater than 200 µM.

As to `CCN(CC)CC1CCCCCCCCCCC1=O` (configuration not stated), the outcome was inactive.

Turning to `Nc1ccc(S(=O)(=O)NC(CSSCC(NS(=O)(=O)c2ccc(N)cc2)C(=O)O)C(=O)O)cc1` (configuration not stated), the EC50 is greater than 200 µM and the half-maximal inhibitory concentration (IC50) was greater than 200 µM.

As to `CC[C@]1(Cc2ccc(OC)c(OC)c2)C=[N+]([O-])O[C@H](OC2CCCC2(c2ccccc2)c2ccccc2)[C@@H]1OC(C)=O` (some centres not stated), the EC50 was greater than 200 µM and the IC50 is 3.8 µM.

In the case of `CC1OC1C(=O)P(=O)(O)O` (configuration not stated), the EC50 is greater than 200 µM and the IC50 is greater than 200 µM.

As for `c1ccc(CN(Cn2cccn2)Cn2cccn2)nc1`, the outcome was inactive.

Take `CC1(O)C=CC(=O)C=C1`: the EC50 was greater than 2000 µM and the IC50 amounted to 3.47 µM.

For `CC1(CO)OC(n2cnc3cncnc32)CC1O` (configuration not stated), the EC50 was 18.2 µM and the IC50 was greater than 200 µM.

With `CC1CN(c2cc3c(cc2F)c(=O)c(C(=O)O)cn3-c2ccc(N3CCN(C)CC3)cn2)CC(C)N1` (configuration not stated), the EC50 was greater than 145 µM and the IC50 came to 123 µM.

Consider `COC(=O)[C@@H]1CN(C(=O)CCc2ccccc2)C(=O)N1`, for which the EC50 is greater than 200 µM and the IC50 is greater than 200 µM.

In the case of `C/C(=N/NC(=S)N1CCN(C(=S)N/N=C(/C)c2ccccn2)CC1)c1ccccn1`, the EC50 is greater than 200 µM and the IC50 was 3.98 µM.

Take `N#CCC(=O)N/N=C\c1ccc2c(c1)OCO2`: the EC50 is greater than 200 µM and the IC50 is greater than 200 µM.

Take `Brc1ccc(C=NC23CC4CC(CC(C4)C2)C3)cc1`: the EC50 is greater than 56.2 µM and the IC50 is greater than 56.2 µM.

As for `Nc1c(N=Nc2ccc(/C=C/c3ccc(N=Nc4cc(S(=O)(=O)O)c5cccnc5c4N)cc3S(=O)(=O)O)c(S(=O)(=O)O)c2)cc(S(=O)(=O)O)c2cccnc12`, the EC50 was greater than 4.68 µM and the IC50 is greater than 4.68 µM.

For the compound `NC(=O)C1c2ccccc2C=Cc2ccccc21`, the EC50 was greater than 200 µM and the concentration for half-maximal inhibition (IC50) turned out to be 155 µM.

Consider `CCOP(=O)(OCC)C(Cc1ccc(OC)c(OC)c1)N=C(c1ccccc1)c1ccccc1` (configuration not stated), for which the EC50 was greater than 200 µM and the IC50 is 29.5 µM.
